According to patent US7063946B2, “Methods, reagents, kits and apparatus for protein function analysis” (Meso Scale Technologies, LLC., priority 2001, dated 2006):
pIC50: −log10 of the molar value.

Tests used:
[1] = target: T1, Kdr (Mus musculus, UniProt P35918); assay: Kinase inhibitor profiling, autophosphorylation; type: biochemical
T1 construct: specificity data for proteins generated from a library of eighteen full-length clones; biotin on random lysines (biotin-Lys-tRNA); host or cells: rabbit reticulocyte lysate, coupled transcription/translation (TnT, Promega)
Method: (§1) Proteins were produced from DNA plasmids of Mock Luciferase, Promega, tyrosine kinase clone Spleen Tyrosine kinase (SYK, IMAGE ID# 3870426) and Eph receptor-A7 (EphA7, IMAGE ID# 3991628) (Incyte Genomics, CA) and immobilized on streptavidin or avidin coated NPT-IPR plates as described in the Example 7. To promote autophosphorylation in these immobilized and purified proteins, Mn++ ions were added in a 50 μl reaction containing 5 mM MgCl2, 5 mM MnCl2, 100 μM ATP, 25 mM Tris-HCl buffer pH 7.4, 0.05 mM Na3VO4, 0.004% TritonX-100, 2 mM DTT and EDTA-free protease inhibitor (Roche Molecular Biochemicals). This mixture was incubated with shaking at room temperature overnight to allow autophosphorylation. Following this incubation, wells were washed 2 times with TT-buffer and 2 times with water. Following this step, 50 ng Sulfo-TAG labeled anti-phosphotyrosine in buffer containing 25 mM Tris-HCl buffer pH 7.4, 5 mM MgCl2, 0.05 mM Na3VO4, 0.004% TritonX-100, 2 mM DTT and 0.05% IgG in a final volume of 50 μl was added followed by incubation at room temperature for 45 min. The unbound reagents were removed by one time washing with water, and the TAG label was detected in presence of 150 μl IPR assay buffer (0.4 mM Gly—Gly buffer, pH 7.8, 1 mM EDTA, 0.1 M TPA). The ECL signals were measured using an imaging plate reader.
(§2) The unbound components of the translation reaction (including any endogenous kinases) were removed by 3 washes with TT-buffer (25 mM Tris-HCl buffer pH 7.4 and 0.004% Triton), two five minutes washes with high-salt wash buffer (25 mM Tris-HCl buffer pH 7.4, 0.004% Triton, 1M NaCl and 5 mM DTT) and 3 washes with TT-buffer. […] The mixture was incubated at room temperature for 10 mm before starting the kinase reaction by adding 25 μl of 200 μM ATP in buffer A. This mixture was incubated with intermittent shaking at room temperature for 2 hours to overnight to allow (a) phosphorylation of the pEY substrate and (b) autophosphorylation of the immobilized kinases. Autophosphorylation and phosphorylation of the pEY was measured as described in Examples 7 and 8.
(§3) The ECL signal in control wells produced by tyrosine kinases was compared to the wells containing inhibitor compounds.

[2] = test system: tyrosine kinases reported to be the target of each inhibitor; conditions: read-out: reported IC50 concentration (1× concentration); for the kinase reported to be the target of the inhibitor; cited from earlier work
[3] = target: T1, Kdr; assay: Kinase inhibitor profiling, pEY phosphorylation; type: biochemical
Method: Proteins were produced in an in vitro transcription and translation reaction. […] The unbound components of the reaction containing endogenous kinases were removed by three washes with TT-buffer (25 mM Tris-HCl buffer pH 7.4 and 0.004% Triton), two five minutes washings with high-salt wash buffer (25 mM Tris-HCl buffer pH 7.4, 0.004% Triton, 1M NaCl and 5 mM DTT) and 3 more washes with TT-buffer. To these immobilized and purified proteins a tyrosine kinase substrate, 5 nM pEY (poly Glu-Tyr, Sigma, MO), was added in a 50 μl reaction solution containing 5 mM MgCl2, 5 mM MnCl2, 100 μM ATP, 25 mM Tris-HCl buffer pH 7.4, 0.05 mM Na3VO4, 0.004% TritonX-100, 2 mM DTT and EDTA-free protease inhibitor (Roche Molecular Biochemicals). This mixture was incubated with shaking at room temperature overnight to allow phosphorylation of the pEY substrate by the immobilized kinases. Following this incubation, 45 μl of this mixture was transferred to a streptavidin or avidin-coated NPT IPR plate coated with biotinylated anti-phosphotyrosine antibody (PY20, Zymed labs, CA) followed by incubation for 30 minutes at room temperature to allow the binding of the phosphorylated pEY substrate to the PY20 coated NPT plate. Following this binding step, 50 ng Sulfo-TAG labeled anti-phosphotyrosine in buffer containing 25 mM Tris-HCl buffer pH 7.4, 5 mM MgCl2, 0.05 mM Na3VO4, 0.004% TritonX-100, 2 mM DTT and 0.05% IgG was added followed by incubation at room temperature for 30 mm. The unbound reagents were removed by one time washing with water, and the TAG label was detected in presence of 150 μl IPR assay buffer (0.4 mM Gly-Gly buffer, pH 7.8, 1 mM EDTA, 0.1 M TPA). The ECL signals were measured using an imaging plate reader.
as §2, §3

[4] = target: T2, LCK (Homo sapiens, UniProt P06239); assay: Kinase inhibitor profiling, autophosphorylation; type: biochemical
T2 construct: specificity data for proteins generated from a library of eighteen full-length clones; host or cells: rabbit reticulocyte lysate, TnT coupled in vitro transcription/translation (cell-free)
Method: as §1, with “To” for “Proteins were produced from DNA plasmids of Mock Luciferase, Promega, tyrosine kinase clone Spleen Tyrosine kinase (SYK, IMAGE ID# 3870426) and Eph receptor-A7 (EphA7, IMAGE ID# 3991628) (Incyte Genomics, CA) and immobilized on streptavidin or avidin coated NPT-IPR plates as described in the Example 7. To”
as §2, with “kinases.” for “kinases. Autophosphorylation and phosphorylation of the pEY was measured as described in Examples 7 and 8.”
as §3

[5] = target: T3, BTK (Homo sapiens, UniProt Q06187); assay: Kinase inhibitor profiling, autophosphorylation; type: biochemical
T3 construct: specificity data for proteins generated from a library of eighteen full-length clones; host or cells: rabbit reticulocyte lysate, TnT coupled in vitro transcription/translation (cell-free)
T3 sequence (Q06187 whole entry): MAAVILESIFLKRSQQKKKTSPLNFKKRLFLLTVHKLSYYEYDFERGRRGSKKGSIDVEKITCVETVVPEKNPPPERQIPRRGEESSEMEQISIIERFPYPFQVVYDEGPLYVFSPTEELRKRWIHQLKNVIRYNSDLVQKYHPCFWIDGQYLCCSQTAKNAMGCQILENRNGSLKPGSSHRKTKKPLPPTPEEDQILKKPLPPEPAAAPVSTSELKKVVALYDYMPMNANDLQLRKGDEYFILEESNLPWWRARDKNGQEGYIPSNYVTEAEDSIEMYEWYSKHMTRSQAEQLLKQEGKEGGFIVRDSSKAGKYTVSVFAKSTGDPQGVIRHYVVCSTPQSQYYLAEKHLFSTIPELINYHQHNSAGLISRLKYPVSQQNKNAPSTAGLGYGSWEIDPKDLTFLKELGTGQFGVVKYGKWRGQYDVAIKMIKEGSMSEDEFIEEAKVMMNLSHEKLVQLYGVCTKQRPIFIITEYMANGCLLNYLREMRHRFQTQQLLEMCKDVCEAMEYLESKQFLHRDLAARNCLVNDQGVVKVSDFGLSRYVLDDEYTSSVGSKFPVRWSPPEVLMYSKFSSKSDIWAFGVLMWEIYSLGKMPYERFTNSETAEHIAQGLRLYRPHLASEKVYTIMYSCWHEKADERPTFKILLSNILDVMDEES

T2 sequence (P06239 whole entry): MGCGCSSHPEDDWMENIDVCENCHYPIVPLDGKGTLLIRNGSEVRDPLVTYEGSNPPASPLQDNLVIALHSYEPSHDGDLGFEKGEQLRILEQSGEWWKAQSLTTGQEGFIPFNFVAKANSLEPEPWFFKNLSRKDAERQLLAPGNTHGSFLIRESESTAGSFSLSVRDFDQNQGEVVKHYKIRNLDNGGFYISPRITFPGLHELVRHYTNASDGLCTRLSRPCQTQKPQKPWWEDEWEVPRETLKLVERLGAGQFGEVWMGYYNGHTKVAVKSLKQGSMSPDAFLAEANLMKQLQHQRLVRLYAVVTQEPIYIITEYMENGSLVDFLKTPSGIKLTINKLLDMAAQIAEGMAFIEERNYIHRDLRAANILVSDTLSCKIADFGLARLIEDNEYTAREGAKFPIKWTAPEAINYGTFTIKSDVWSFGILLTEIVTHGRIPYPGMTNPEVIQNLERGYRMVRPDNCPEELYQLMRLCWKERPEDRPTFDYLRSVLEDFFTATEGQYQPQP
T1 sequence (P35918 20-1345): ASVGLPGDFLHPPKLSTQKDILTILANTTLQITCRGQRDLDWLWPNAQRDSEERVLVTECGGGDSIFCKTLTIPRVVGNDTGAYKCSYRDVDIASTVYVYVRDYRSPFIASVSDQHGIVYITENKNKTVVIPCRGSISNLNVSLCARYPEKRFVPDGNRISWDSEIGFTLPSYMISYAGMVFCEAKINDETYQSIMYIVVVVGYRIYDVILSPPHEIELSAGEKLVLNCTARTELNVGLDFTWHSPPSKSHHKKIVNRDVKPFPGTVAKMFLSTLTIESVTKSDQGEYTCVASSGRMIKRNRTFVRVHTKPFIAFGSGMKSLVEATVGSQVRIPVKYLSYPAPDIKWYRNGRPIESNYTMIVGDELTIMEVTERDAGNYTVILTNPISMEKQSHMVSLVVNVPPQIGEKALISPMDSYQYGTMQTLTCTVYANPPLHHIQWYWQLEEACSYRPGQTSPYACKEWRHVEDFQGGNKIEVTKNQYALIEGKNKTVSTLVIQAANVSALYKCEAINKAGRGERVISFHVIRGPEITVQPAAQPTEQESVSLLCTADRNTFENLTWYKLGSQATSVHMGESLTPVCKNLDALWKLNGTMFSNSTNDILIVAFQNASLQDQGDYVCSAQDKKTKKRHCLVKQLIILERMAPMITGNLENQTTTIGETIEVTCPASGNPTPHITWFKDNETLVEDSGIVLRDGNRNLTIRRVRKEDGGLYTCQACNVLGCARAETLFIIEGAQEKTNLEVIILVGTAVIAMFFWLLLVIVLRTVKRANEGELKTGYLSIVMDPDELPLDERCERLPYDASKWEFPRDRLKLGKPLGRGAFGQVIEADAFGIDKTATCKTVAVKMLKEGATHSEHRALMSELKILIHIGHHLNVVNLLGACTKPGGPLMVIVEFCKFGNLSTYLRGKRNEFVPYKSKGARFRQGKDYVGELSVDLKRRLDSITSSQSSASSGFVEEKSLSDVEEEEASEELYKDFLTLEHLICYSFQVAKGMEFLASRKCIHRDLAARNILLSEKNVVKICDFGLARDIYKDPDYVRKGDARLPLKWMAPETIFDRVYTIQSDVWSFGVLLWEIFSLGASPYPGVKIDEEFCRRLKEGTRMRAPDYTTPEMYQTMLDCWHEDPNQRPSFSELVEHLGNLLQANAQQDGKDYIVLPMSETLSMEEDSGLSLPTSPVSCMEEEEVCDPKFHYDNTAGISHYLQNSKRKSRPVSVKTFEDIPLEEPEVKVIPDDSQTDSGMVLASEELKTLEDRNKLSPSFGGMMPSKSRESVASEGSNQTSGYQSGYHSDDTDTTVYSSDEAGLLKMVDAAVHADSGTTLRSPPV

Compound	Inhibition specificity towards Autophosphorylation at 10X IC50, Kdr [1]	pIC50 [2]	Inhibition specificity towards pEY phosphorylation at 10X IC50, Kdr [3]	Inhibition specificity towards Autophosphorylation at 10X IC50, LCK [4]	Inhibition specificity towards Autophosphorylation at 10X IC50, BTK [5]
COc1cc2ncnc(Nc3ccc(O)cc3)c2cc1OC [WHI-P131]	M (medium inhibition (“M”=between 25 to 50% of the activity remaining))	5.11	H (high inhibition (“H”=less than 25% of the activity remaining))	M (medium inhibition (“M”=between 25 to 50% of the activity remaining))	–
Cc1ccc(-c2nn(C(C)(C)C)c3ncnc(N)c23)cc1 [PP1]	L (low inhibition (“L”=between 50–75% of the activity remaining))	6.22	M (medium inhibition (“M”=between 25 to 50% of the activity remaining))	–	–
COC(=O)c1ccc(NCc2cc(O)ccc2O)cc1 [AG-957]	L (low inhibition (“L”=between 50–75% of the activity remaining))	6.12	–	–	L (low inhibition (“L”=between 50–75% of the activity remaining))
Erbstatin analog	L (low inhibition (“L”=between 50–75% of the activity remaining))	6.11	–	L (low inhibition (“L”=between 50–75% of the activity remaining))	L (low inhibition (“L”=between 50–75% of the activity remaining))
Cc1cc2ncc(-c3ccc(O)c(O)c3)nc2cc1C [AG-1433]	H (high inhibition (“H”=less than 25% of the activity remaining))	5.30	H (high inhibition (“H”=less than 25% of the activity remaining))	H (high inhibition (“H”=less than 25% of the activity remaining))	H (high inhibition (“H”=less than 25% of the activity remaining))
COc1cc2ncnc(Nc3ccc(Cl)cc3F)c2cc1OC [VEGFR inhibitor]	M (medium inhibition (“M”=between 25 to 50% of the activity remaining))	5.70	H (high inhibition (“H”=less than 25% of the activity remaining))	L (low inhibition (“L”=between 50–75% of the activity remaining))	L (low inhibition (“L”=between 50–75% of the activity remaining))
CC(C)(C)c1cc(C=C(C#N)C#N)cc(Br)c1O [AG-1024]	–	4.74	M (medium inhibition (“M”=between 25 to 50% of the activity remaining))	–	L (low inhibition (“L”=between 50–75% of the activity remaining))
COc1c(C=O)c(O)cc2c1C(=O)c1ccccc1C2=O [Damnacanthal]	H (high inhibition (“H”=less than 25% of the activity remaining))	6.21	H (high inhibition (“H”=less than 25% of the activity remaining))	–	H (high inhibition (“H”=less than 25% of the activity remaining))
